These results are taken from patent US20260008760A1, “DIPEPTIDYL PEPTIDASE 1 INHIBITORS AND USES THEREOF” (Insmed Incorporated, priority 2024, published 2026).

Assay [1] has as its target T1, DPP1 in HL-60 cells (Homo sapiens, UniProt P53634). Nature of the assay: DPP1 Cell Single-Point Percent Inhibition Testing. It counts as cell-based. Particulars: final compound concentration 5 nM, n = 1. Also noted: host or cells: HL-60 cells. The method in brief: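 HL-60 cells in unsupplemented RPMI preincubated 60 min at 37 °C with test article (5 nM final, 0.1% DMSO), then given cell-permeable H-Gly-Phe-AFC (100 μM final) for 30 min. Fluorescence at 400/505 nm; percent inhibition versus vehicle after subtracting cell-free background and 10 μM brensocatib non-specific signal.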

The target of assay [2] is T2, human DPP1 enzyme (Homo sapiens, UniProt P53634). As to the kind of experiment: Human DPP1 Enzyme Single-Point Percent Inhibition Testing (HL-60 lysate). The format is biochemical. Also noted: A crude lysate of HL-60 cells (ATCC; Manassas, VA) was used as a source of human DPP1 enzyme; host or cells: HL-60 cells (crude lysate). Particulars: final compound concentration of 10 nM, 400 μM H-Gly-Arg-AMC, n = 1. In outline: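 Enzyme source was HL-60 cell lysate in MES pH 6.0 buffer with NaCl and DTT, pre-incubated 10 min at 37° C with 10 nM compound (final, 1% DMSO). Cleavage of 400 μM H-Gly-Arg-AMC was followed at 350/450 nm over 90 min at 37° C, and percent inhibition was taken against vehicle wells.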
Target sequence in this assay (P53634 25-463): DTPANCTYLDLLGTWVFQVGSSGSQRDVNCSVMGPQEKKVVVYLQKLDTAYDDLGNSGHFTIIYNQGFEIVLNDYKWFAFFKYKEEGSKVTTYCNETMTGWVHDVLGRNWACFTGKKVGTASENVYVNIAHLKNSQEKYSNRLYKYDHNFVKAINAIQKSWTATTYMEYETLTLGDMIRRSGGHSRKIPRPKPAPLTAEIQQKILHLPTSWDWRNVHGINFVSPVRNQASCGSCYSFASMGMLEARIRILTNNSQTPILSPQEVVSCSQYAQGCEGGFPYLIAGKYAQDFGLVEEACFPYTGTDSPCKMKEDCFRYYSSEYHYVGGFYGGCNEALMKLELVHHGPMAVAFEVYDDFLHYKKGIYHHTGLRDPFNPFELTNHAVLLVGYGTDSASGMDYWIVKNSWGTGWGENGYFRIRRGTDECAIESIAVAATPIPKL

Assay [3] deals with T1, DPP1 in HL-60 cells. As to the kind of experiment: DPP1 Cell IC50 assay. It counts as cell-based. Also on record: host or cells: HL-60 cells. Particulars: 60 min pre-incubation, H-Gly-Phe-AFC substrate, average of n runs, read-out: Avg. IC50 (DPP1 Cell IC50 value ranges). In outline: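 Intracellular DPP1 activity read as AFC fluorescence (Ex/Em 400/505 nm) after 30 min with H-Gly-Phe-AFC (500 μM stock), following 60 min compound pre-incubation at 37° C with HL-60 cells at 5×10^5 live cells per mL in PBS. IC50 by 4-parameter fit against DMSO-only controls.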

For assay [4], the target named is T2, human DPP1 enzyme. Nature of the assay: Human DPP1 Enzyme IC50 Assay. It counts as biochemical. Also noted: was first proteolytically processed into its mature form using recombinant human cathepsin L; purchased R&D Systems. Particulars: activated recombinant human DPP1, 400 μM H-Gly-Arg-AMC, 10 minutes pre-incubation at 37° C., pH 6.0; average of n runs; read-out: Avg. IC50 (Human DPP1 enzyme IC50 value ranges). The method in brief:
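IC50 came from a four-parameter fit of activity relative to no-compound control, with fluorescence (Ex 350/Em 450 nm) read every 5 min for 90 min at 37 °C using 400 μM final H-Gly-Arg-AMC. Cathepsin L-matured human recombinant DPP1 was preincubated 10 min with compound at pH 6.0 (MES, DTT, 1% DMSO).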
Target sequence in this assay (P53634 25-134 limits assumed): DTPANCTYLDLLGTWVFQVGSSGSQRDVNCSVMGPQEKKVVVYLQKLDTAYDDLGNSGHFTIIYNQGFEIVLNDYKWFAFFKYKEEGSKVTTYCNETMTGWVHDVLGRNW
Target sequence in this assay (P53634 231-394 limits assumed): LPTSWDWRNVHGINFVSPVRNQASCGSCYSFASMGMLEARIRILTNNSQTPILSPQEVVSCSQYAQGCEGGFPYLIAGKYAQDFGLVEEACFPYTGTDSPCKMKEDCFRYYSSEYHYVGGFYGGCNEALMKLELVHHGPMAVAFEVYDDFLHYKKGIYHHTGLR
Target sequence in this assay (P53634 395-463 limits assumed): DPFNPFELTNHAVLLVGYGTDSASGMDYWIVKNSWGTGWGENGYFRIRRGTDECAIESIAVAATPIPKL

Several values for one entry are separate records, joined by “and”; a condition that tells them apart may be missing. Equal values may be shown once.

T1 sequence (P53634 25-463): as the sequence (P53634 25-463) above

Take `CO[C@@H]1CCNC[C@@H](C(=O)N[C@H](C#N)Cc2ccc(-c3ccc4c(c3)C3(CCN(C5COC5)CC3)OC4)cc2F)OC1` [Compound F6]: the inhibition (commonly the relative decrease from the control value, in per cent) at 0.005 µM on DPP1 in HL-60 cells [1] is at most 76.5%. At human DPP1 enzyme [2], this molecule showed an inhibition at 0.01 µM of at least 66.7%. The IC50 – broadly, the concentration at which inhibition is half-maximal – at DPP1 in HL-60 cells [3] is over 2.5 nM; at human DPP1 enzyme [4], under 5 nM.
`Cn1c(=O)oc2ccc3c(c21)COc1cc(CC(C#N)NC(=O)[C@@H]2CNCCCO2)c(F)cc1-3` (some centres unmarked) [Compound C29] came in with an inhibition at 0.005 µM against DPP1 in HL-60 cells [1] of at most 76.5%. This molecule yielded an inhibition at 0.01 µM against human DPP1 enzyme [2] of at most 40%. For the same molecule, the 50% inhibitory concentration (IC50) is > 2.5 nM and 1 to 2.5 nM on DPP1 in HL-60 cells [3]; over 15 nM at human DPP1 enzyme [4].
In turn, `CCCN1CCC2(CC1)SCCc1ccc(-c3ccc(C[C@@H](C#N)NC(=O)[C@@H]4CNCCCO4)cc3)cc12` [Compound I3] had an inhibition at 0.005 µM against DPP1 in HL-60 cells [1] of at most 76.5%. The inhibition at 0.01 µM on human DPP1 enzyme [2] was at least 66.7%. Besides, the IC50 is over 2.5 nM on DPP1 in HL-60 cells [3] and 5 to 15 nM at human DPP1 enzyme [4].
The corresponding values for `CN1CC[C@]2(C1)C(=O)OCc1ccc(-c3ccc(C[C@@H](C#N)NC(=O)[C@@H]4CNCCCO4)cc3)cc12` [Compound I2] are at most 76.5%, 40 to 66.7%, over 2.5 nM and 5 to 15 nM.
The molecule `C[C@@H]1NC[C@@H](C(=O)N[C@H](C#N)Cc2ccc(-c3cnc4c(n3)CCCC4)cc2F)OC[C@@H]1O` [Compound A109] registered an inhibition at 0.005 µM on DPP1 in HL-60 cells [1] of at most 76.5%. Further, the inhibition at 0.01 µM against human DPP1 enzyme [2] lay within 40 to 66.7%. In addition, the IC50 on DPP1 in HL-60 cells [3] is > 2.5 nM and 1 to 2.5 nM; at human DPP1 enzyme [4], 5 to 15 nM and < 5 nM.
As for `CCN1C(=O)Cc2ccc(-c3ccc(C[C@@H](C#N)NC(=O)[C@@H]4CNCCCO4)c(F)c3)cc21` [Compound G12], the inhibition at 0.005 µM on DPP1 in HL-60 cells [1] is at most 76.5%. This molecule gave an inhibition at 0.01 µM against human DPP1 enzyme [2] of 40 to 66.7%. The half-inhibitory concentration (IC50) on DPP1 in HL-60 cells [3] is > 2.5 nM and 1 to 2.5 nM; on human DPP1 enzyme [4], 5 to 15 nM.
For `CCN1C(=O)Cc2ccc(-c3ccc(C[C@@H](C#N)NC(=O)[C@@H]4CNCCCO4)cc3)cc21` [Compound G11], the inhibition at 0.005 µM on DPP1 in HL-60 cells [1] was at most 76.5%. At human DPP1 enzyme [2], the inhibition at 0.01 µM was at most 40%. Further, the IC50 on DPP1 in HL-60 cells [3] was over 2.5 nM; at human DPP1 enzyme [4], over 15 nM.
The corresponding values for `Cc1nc(C)c2cc(-c3ccc(C[C@@H](C#N)NC(=O)[C@@H]4CNCCCCO4)cc3)cn2c1C` [Compound A138] are 76.5 to 93.9%, at most 40%, under 1 nM and over 15 nM.
Regarding `N#C[C@H](Cc1cc2c(cc1F)-c1cc3c(cc1CO2)COC31CCN(C2COC2)CC1)NC(=O)[C@@H]1CNCCCCO1` [Compound C32], the inhibition at 0.005 µM at DPP1 in HL-60 cells [1] was at most 76.5%. The same molecule came in with an inhibition at 0.01 µM against human DPP1 enzyme [2] of at least 66.7%. In addition, the 50% inhibitory concentration (IC50) on DPP1 in HL-60 cells [3] was over 2.5 nM; at human DPP1 enzyme [4] it was under 5 nM.
Regarding `CCN1C(=O)Cc2ccc(-c3ccc(C[C@@H](C#N)NC(=O)[C@@H]4CN[C@@H](C)[C@@H](O)CO4)c(F)c3)cc21` [Compound G10], the inhibition at 0.005 µM on DPP1 in HL-60 cells [1] was at most 76.5%. The same molecule showed an inhibition at 0.01 µM against human DPP1 enzyme [2] of 40 to 66.7%. The half-maximal inhibitory concentration (IC50) on DPP1 in HL-60 cells [3] is over 2.5 nM; at human DPP1 enzyme [4], 5 to 15 nM.
The corresponding values for `CN1CCC(N2CC[C@]3(COCc4ccc(-c5ccc(C[C@@H](C#N)NC(=O)[C@@H]6CNCCCO6)cc5)cc43)C2)CC1` [Compound I8] are at most 76.5%, at least 66.7%, over 2.5 nM and 5 to 15 nM.
The corresponding values for `N#C[C@H](Cc1ccc(-c2ccn3ccnc3c2)cc1)NC(=O)[C@@H]1CNCCCO1` [Compound A142] are at most 76.5%, at most 40%, over 2.5 nM and over 15 nM.
Molecule `COC1CNC[C@@H](C(=O)N[C@H](C#N)Cc2ccc(-c3cc4c(C)nc(C)cn4c3)cc2F)OC1` (some centres unmarked) [Compound A88] displayed an inhibition at 0.005 µM at DPP1 in HL-60 cells [1] of 76.5 to 93.9%. The molecule further came in with an inhibition at 0.01 µM at human DPP1 enzyme [2] of at least 66.7%. For the same molecule, the values for the IC50 at DPP1 in HL-60 cells [3] and on human DPP1 enzyme [4] were 1 to 2.5 nM and under 5 nM, respectively.
At DPP1 in HL-60 cells [1], `COC1CNC[C@@H](C(=O)N[C@H](C#N)Cc2ccc(-c3ccc4nnn(C)c4c3)cc2)OC1` (some centres unmarked) [Compound H12] showed an inhibition at 0.005 µM of at most 76.5%. On human DPP1 enzyme [2], this molecule returned an inhibition at 0.01 µM of at least 66.7%. Also, the 50% inhibitory concentration (IC50) is > 2.5 nM and 1 to 2.5 nM on DPP1 in HL-60 cells [3]; under 5 nM on human DPP1 enzyme [4].
`N#Cc1ccc2c(c1)CSc1cc(C[C@@H](C#N)NC(=O)[C@@H]3CNCCCCO3)c(F)cc1-2` [Compound B17] yielded an inhibition at 0.005 µM on DPP1 in HL-60 cells [1] of at most 76.5%. Also, the inhibition at 0.01 µM at human DPP1 enzyme [2] lay within 40 to 66.7%. In addition, the 50% inhibitory concentration (IC50) is over 2.5 nM on DPP1 in HL-60 cells [3] and 5 to 15 nM at human DPP1 enzyme [4].
With `C[C@@H]1NC[C@@H](C(=O)N[C@H](C#N)Cc2ccc(-c3ccc4cnn(C)c4c3)cc2F)OC[C@@H]1O` [Compound H31], the inhibition at 0.005 µM at DPP1 in HL-60 cells [1] is at most 76.5%. The inhibition at 0.01 µM on human DPP1 enzyme [2] lay in the range of 40 to 66.7%. Further, the IC50 was 1 to 2.5 nM at DPP1 in HL-60 cells [3]; 5 to 15 nM and > 15 nM on human DPP1 enzyme [4].
For the molecule `CCN1C(=O)Cc2ccc(-c3ccc(C[C@@H](C#N)NC(=O)[C@@H]4CN[C@@H](C)[C@@H](O)CO4)cc3)cc21` [Compound G9], the inhibition at 0.005 µM at DPP1 in HL-60 cells [1] was at most 76.5%. The molecule also registered an inhibition at 0.01 µM against human DPP1 enzyme [2] of at most 40%. In addition, the IC50 on DPP1 in HL-60 cells [3] was over 2.5 nM; at human DPP1 enzyme [4], over 15 nM.
As to `CO[C@@H]1CCNC[C@@H](C(=O)N[C@H](C#N)Cc2ccc(-c3ccc4cnn(C)c4c3)cc2)OC1` [Compound H5], on DPP1 in HL-60 cells [1], the inhibition at 0.005 µM was 76.5 to 93.9%. For the same molecule, the inhibition at 0.01 µM on human DPP1 enzyme [2] was at least 66.7%. The half-maximal inhibitory concentration (IC50) on DPP1 in HL-60 cells [3] is 1 to 2.5 nM; at human DPP1 enzyme [4], 5 to 15 nM.
In the same order, the values of `N#C[C@H](Cc1cc2c(cc1F)-c1cc3c(cc1CO2)COC31CCN(C2COC2)CC1)NC(=O)[C@@H]1CNCCCO1` [Compound C31] are at most 76.5%, at least 66.7%, over 2.5 nM and under 5 nM.
In the same order, the values of `Cc1ncc(C)n2cc(-c3ccc(C[C@@H](C#N)NC(=O)[C@@H]4CNCCCCO4)cc3)cc12` [Compound A137] are 76.5 to 93.9%, at most 40%, 1 to 2.5 nM and over 15 nM.
